Literature values, collected in patent US7871609B2, “Supplements for pain management” (priority 2007, dated 2011).
Counter-ions that a name gives are not always drawn. Like-named read-outs stand apart in the source and are kept apart here.

How the values were obtained:
[1] = tested on: cultured cerebellar granule neurons (CGNs); details: exposure to amprolium
[2] = tested on: osteoarthritis (OA) of the knee
[3] = tested on: chronically stressed rats
forced swimming test = details: chronic treatment 14 days, 1.25, 2.5, 5 and 10 mg/kg, p.o.
[4] = tested on: NF-kappaB signalling in human articular chondrocytes
[5] = tested on: cells in tissue culture that express PMP22 mutants; details: cells expressing PMP22 mutants
[6] = tested on: bilateral olfactory bulbectomy (OB) model
spasmodic dysmenorrhea = details: 556 girls aged 12-21 yr, oral daily dose of 100 mg for 90 days
[7] = tested on: homocysteine-induced atherosclerosis; details: day 14, homocysteine thiolactone intake, supplemented versus deficient rats

SMILES: CCCc1ncc(C[n+]2ccccc2C)c(N)n1 [amprolium]
- effect on cerebellar granule neurons [1]: caused apoptosis and the generation of reactive oxygen species

SMILES: O=C(O)Cc1ccccc1Nc1c(Cl)cccc1Cl [diclofenac]
- mean Lequesne's Algofunctional Index (LFI) at end ([2]; after the 6-week observation period): 9.4
- mean Lequesne's Algofunctional Index (LFI) at start ([2]; before the 6-week observation period): 12.5
- tolerability judgment ([2]; majority of patients): very good or good
- global judgment of efficacy by physician, at least good ratings ([2]; share of patients, 6 weeks): 37.2%

SMILES: CN(C)CCCN1c2ccccc2CCc2ccccc21 [imipramine]
- hippocampal neurogenesis ([3]; 10 mg/kg, i.p.): increased hippocampal neurogenesis

SMILES: COc1cc(/C=C/C(=O)CC(=O)/C=C/c2ccc(O)c(OC)c2)ccc1O [Curcumin, diferuloylmethane]
- motor performance (Trembler-J mouse model; mouse, in vivo): improved motor performance
- myelinated axons in sciatic nerves (Trembler-J mouse model; mouse, in vivo): increased number and size
- neuropathy phenotype (Trembler-J mouse model; oral administration, dose-dependent): partially mitigates the severe neuropathy phenotype
- percentage of apoptotic Schwann cells (Trembler-J mouse model; sciatic nerves): significantly decreases
- immobility time (forced swimming test): reduced the immobility time
- IL-1beta-induced down-regulation of collagen type II and beta1-integrin receptor expression [4]: reversed
- IL-1beta-induced stimulation of protein kinase B Akt [4]: inhibited
- IL-1beta-induced NF-kappaB activation ([4]; via inhibition of IkappaBalpha phosphorylation and degradation, p65 phosphorylation and nuclear translocation): suppressed
- expression of NF-kappaB targets COX-2 and MMP-9 ([4]; western blotting): down-regulation
- apoptosis [5]: reduced apoptosis
- hippocampal neurogenesis ([3]; 10 and 20 mg/kg, p.o., 20 days chronic stress): increased hippocampal neurogenesis
- 5-HT(1A) mRNA and BDNF protein levels in the hippocampal subfields ([3]; chronic stress): significantly prevented the stress-induced decrease
- OB-induced behavioral abnormalities (hyperactivity in open field, deficits in step-down passive avoidance) ([6]; chronic administration p.o.): reversed
- OB-induced changes of 5-HT, NA, 5-HIAA and DOPAC in the hippocampus ([6]; rat, in vivo): completely reversed
- OB-induced decrease in 5-HT, NA and DA levels in the frontal cortex ([6]; rat, in vivo): also reversed

SMILES: Cc1ncc(C[n+]2csc(CCO)c2C)c(N)n1 [Vitamin B1, thiamine]
- completely cured (spasmodic dysmenorrhea): 87%
- no effect whatsoever (spasmodic dysmenorrhea): 5%
- relieved (pain almost nil to reduced) (spasmodic dysmenorrhea): 8%
- cases of Baker's cyst cured without recurrence (tumors or masses; thiamin alone injected): 13 out of 15
- cases of submandibular gland cyst cured without recurrence (tumors or masses; thiamin alone injected): Two

SMILES: Cc1ncc(CO)c(CO)c1O [vitamin B-6, pyridoxine]
- aortic lesions [7]: not in vitamin B6-supplemented rats

SMILES: Cc1ncc(C[n+]2csc(CCO)c2C)c(N)n1 [thiamin HCl]
- osteosarcoma circumference before treatment (tumors or masses; one case, pathology-confirmed): 30 cm
- osteosarcoma circumference after treatment (tumors or masses; subcutaneous perfusion of 300 once only, within 2 days): 20 cm
- equivalent reduction in osteosarcoma volume (tumors or masses; within 2 days): 50-75%
